From patent US9869616B2, “Hydrogel encapsulated cell patterning and transferring method and cell-based biosensor using the same” (UNIST ACADEMY-INDUSTRY RESEARCH CORPORATION, priority 2011, dated 2018) come the findings set out here.

Structures are written as SMILES.

The subject of assay [1] is strain DH10B with plasmid pTrc99A-gfp. Put plainly: Extracellular induction of hydrogel-encapsulated cells with pTrc99A-gfp (GFP expression) by the HPT method. Format: cell-based, Escherichia coli. To be noted: 1 mM IPTG in agarose substrate; average of 10 hydrogel microparticles; GFP produced until 8 hours. On the procedure: Competent cells of the MG1655 and DH10B were transformed with synthetically engineered genetic circuits. Some plasmids were transferred from the Registry of Standard Biological Parts, and the others were constructed in the experiment with different antibiotic resistance marker genes. For the growth of these strains, each Escherichia coli culture was grown overnight on M 9 agar solid medium plates with appropriate antibiotics at 35° C. A single colony was used to inoculate 5 mL M9 media with 1% glucose, 1% tryptone, and either 100 μg/mL ampicillin or 30 μg/mL chloramphenicol. Thereafter, the cultures were then grown overnight (16 hours) with vigorous aeration (200 rpm in a rotary shaker), and OD600=1.5-2 cells (1-2 mL) were centrifuged at 5000 rpm for 5 min. The obtained pellet was resuspended with fresh M9 media to give bacterial suspensions with desired cell densities. […]
The images of cell patterns were taken using a stereomicroscope (SZX16, Olympus, Japan) equipped with a CCD camera (DP72, Olympus, Japan) and a fluorescent light source (Xcite-200, ExFo Photonics solutions Inc., Mississauga, Canada) operated by the DP2-BSW software (Olympus, Japan). […] All image processing and quantification of fluorescent intensities were performed using Image J. (NIH, USA), and then results were plotted using Origin 7.1 (OriginLab, Northampton, Mass., USA). […]

In assay [2] the test system is araBAD promoter (PBAD) of pZBRG. In words: Induction of RFP from the genetic circuit pZBRG (araBAD promoter) in hydrogel-encapsulated cells. The class given is cell-based, Escherichia coli.

With `CC(C)S[C@@H]1O[C@H](CO)[C@H](O)[C@H](O)[C@H]1O` [IPTG, isopropyl-beta-D-thiogalactopyranoside], the “gene expression level (average GFP fluorescent intensity)” value in assay [1] came out at 40 AU.

As to `O=C[C@@H](O)[C@H](O)[C@H](O)CO` [arabinose], the “RFP expression of patterned cells” value in assay [2] (400 mM arabinose in agarose substrate, in 8 hours) is recorded as “activated to express red fluorescent protein (RFP)”. Moreover, the “threshold concentration (inducer gradient)” value in assay [2] (RFP gradient reaches saturated values in about 10 hours) was “relatively high”. Moreover, in assay [2] (both tetracycline (1 μM) and arabinose (400 μM)), the “cross-talk on simultaneous induction (RFP)” value is given as “no significant cross-talk was observed”. Also, in assay [2] (only arabinose (400 μM) in agarose substrate), the “fluorescent signals detected, separate induction” value is “only RFP signals were detected”.
